# Source: PubChem BioAssay (NCI)
#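 A five-concentration, 48-hour dose response in 96-well plates underlies each endpoint, interpolated linearly between surrounding concentrations. TGI: total growth inhibition.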
# Columns and labels:
# Test in all cases: growth of human tumour cells (NCI), 48 h
# DLD-1 colon = system: DLD-1 colon
# RXF 393 renal = system: RXF 393 renal
# HCC-2998 colon = system: HCC-2998 colon
# KM12 colon = system: KM12 colon
# 786-0 renal = system: 786-0 renal
# DMS 273 small cell lung = system: DMS 273 small cell lung
# M14 melanoma = system: M14 melanoma
# ACHN renal = system: ACHN renal
# HOP-18 NSCLC = system: HOP-18 NSCLC
# SK-MEL-2 melanoma = system: SK-MEL-2 melanoma
# SN12C renal = system: SN12C renal
# SNB-75 CNS = system: SNB-75 CNS
# IGROV1 ovarian = system: IGROV1 ovarian
# EKVX NSCLC = system: EKVX NSCLC
# SK-MEL-5 melanoma = system: SK-MEL-5 melanoma
# SNB-78 CNS = system: SNB-78 CNS
# NCI-H522 lung = system: NCI-H522 lung
# SF-268 CNS = system: SF-268 CNS
# HOP-92 NSCLC = system: HOP-92 NSCLC
# SNB-19 CNS = system: SNB-19 CNS
# RXF-631 renal = system: RXF-631 renal
# OVCAR-5 ovarian = system: OVCAR-5 ovarian
# LOX IMVI melanoma = system: LOX IMVI melanoma
# M19-MEL melanoma = system: M19-MEL melanoma
# A549 NSCLC = system: A549 NSCLC
# SF-295 CNS = system: SF-295 CNS
# HT29 colon = system: HT29 colon
# SK-OV-3 ovarian = system: SK-OV-3 ovarian
# SK-MEL-28 melanoma = system: SK-MEL-28 melanoma
# DMS 114 small cell lung = system: DMS 114 small cell lung
# U251 CNS = system: U251 CNS
# LXFL 529 NSCLC = system: LXFL 529 NSCLC
# COLO 205 colon = system: COLO 205 colon
# HCT-116 colon = system: HCT-116 colon
# SW-620 colon = system: SW-620 colon
# CAKI-1 renal = system: CAKI-1 renal
# K-562 leukemia = system: K-562 leukemia
# CCRF-CEM leukemia = system: CCRF-CEM leukemia
# OVCAR-3 ovarian = system: OVCAR-3 ovarian
# OVCAR-8 ovarian = system: OVCAR-8 ovarian
# TK-10 renal = system: TK-10 renal
# UACC-62 melanoma = system: UACC-62 melanoma
# RPMI-8226 leukemia = system: RPMI-8226 leukemia
# KM20L2 colon = system: KM20L2 colon
# MALME-3M melanoma = system: MALME-3M melanoma
# NCI-H226 lung = system: NCI-H226 lung
# NCI-H23 lung = system: NCI-H23 lung
# MOLT-4 leukemia = system: MOLT-4 leukemia
# HCT-15 colon = system: HCT-15 colon
# UACC-257 melanoma = system: UACC-257 melanoma
# UO-31 renal = system: UO-31 renal
# A498 renal = system: A498 renal
# HL-60(TB) leukemia = system: HL-60(TB) leukemia
# SF-539 CNS = system: SF-539 CNS
# OVCAR-4 ovarian = system: OVCAR-4 ovarian
# NCI-H460 lung = system: NCI-H460 lung
# HOP-62 NSCLC = system: HOP-62 NSCLC
# XF 498 CNS = system: XF 498 CNS
compound,measurement,setting,value
CC12OC3(C)OC(=O)C(c4ccccc4)(O1)C3(C)O2 (configuration not stated),TGI,DLD-1 colon,> 100 µM
same,TGI,RXF 393 renal,> 100 µM
same,TGI,HCC-2998 colon,> 100 µM
same,TGI,KM12 colon,> 100 µM
same,TGI,786-0 renal,> 100 µM
same,TGI,DMS 273 small cell lung,> 100 µM
same,TGI,M14 melanoma,> 100 µM
same,TGI,ACHN renal,> 100 µM
same,TGI,HOP-18 NSCLC,> 100 µM
same,TGI,SK-MEL-2 melanoma,> 100 µM
same,TGI,SN12C renal,> 100 µM
same,TGI,SNB-75 CNS,> 100 µM
same,TGI,IGROV1 ovarian,> 100 µM
same,TGI,EKVX NSCLC,> 100 µM
same,TGI,SK-MEL-5 melanoma,> 100 µM
same,TGI,SNB-78 CNS,> 100 µM
same,TGI,NCI-H522 lung,> 100 µM
same,TGI,SF-268 CNS,> 100 µM
same,TGI,HOP-92 NSCLC,> 100 µM
same,TGI,SNB-19 CNS,> 100 µM
same,TGI,RXF-631 renal,> 100 µM
same,TGI,OVCAR-5 ovarian,> 100 µM
same,TGI,LOX IMVI melanoma,> 100 µM
same,TGI,M19-MEL melanoma,> 100 µM
same,TGI,A549 NSCLC,> 100 µM
same,TGI,SF-295 CNS,> 100 µM
same,TGI,HT29 colon,> 100 µM
same,TGI,SK-OV-3 ovarian,> 100 µM
same,TGI,SK-MEL-28 melanoma,> 100 µM
same,TGI,DMS 114 small cell lung,> 100 µM
same,TGI,U251 CNS,> 100 µM
same,TGI,LXFL 529 NSCLC,> 100 µM
same,TGI,COLO 205 colon,> 100 µM
same,TGI,HCT-116 colon,> 100 µM
same,TGI,SW-620 colon,> 100 µM
same,TGI,CAKI-1 renal,> 100 µM
same,TGI,K-562 leukemia,> 100 µM
same,TGI,CCRF-CEM leukemia,> 100 µM
same,TGI,OVCAR-3 ovarian,> 100 µM
same,TGI,OVCAR-8 ovarian,> 100 µM
same,TGI,TK-10 renal,> 100 µM
same,TGI,UACC-62 melanoma,> 100 µM
same,TGI,RPMI-8226 leukemia,> 100 µM
same,TGI,KM20L2 colon,> 100 µM
same,TGI,MALME-3M melanoma,> 100 µM
same,TGI,NCI-H226 lung,> 100 µM
same,TGI,NCI-H23 lung,> 100 µM
same,TGI,MOLT-4 leukemia,> 100 µM
same,TGI,HCT-15 colon,> 100 µM
same,TGI,UACC-257 melanoma,> 100 µM
same,TGI,UO-31 renal,> 100 µM
same,TGI,A498 renal,> 100 µM
same,TGI,HL-60(TB) leukemia,> 100 µM
same,TGI,SF-539 CNS,> 100 µM
same,TGI,OVCAR-4 ovarian,> 100 µM
COC(=O)C1=C(C(=O)OC)C2(CCCCCC2=O)OC1=O (configuration not stated),TGI,RXF 393 renal,> 100 µM
same,TGI,HCC-2998 colon,> 100 µM
same,TGI,KM12 colon,> 100 µM
same,TGI,786-0 renal,> 100 µM
same,TGI,DMS 273 small cell lung,> 100 µM
same,TGI,M14 melanoma,> 100 µM
same,TGI,ACHN renal,> 100 µM
same,TGI,SK-MEL-2 melanoma,> 100 µM
same,TGI,SN12C renal,> 100 µM
same,TGI,SNB-75 CNS,> 100 µM
same,TGI,IGROV1 ovarian,> 100 µM
same,TGI,EKVX NSCLC,> 100 µM
same,TGI,SK-MEL-5 melanoma,> 100 µM
same,TGI,SNB-78 CNS,> 100 µM
same,TGI,NCI-H522 lung,> 100 µM
same,TGI,SF-268 CNS,> 100 µM
same,TGI,HOP-92 NSCLC,> 100 µM
same,TGI,SNB-19 CNS,> 100 µM
same,TGI,RXF-631 renal,> 100 µM
same,TGI,OVCAR-5 ovarian,> 100 µM
same,TGI,M19-MEL melanoma,> 100 µM
same,TGI,A549 NSCLC,> 100 µM
same,TGI,SF-295 CNS,> 100 µM
same,TGI,HT29 colon,> 100 µM
same,TGI,SK-OV-3 ovarian,> 100 µM
same,TGI,SK-MEL-28 melanoma,> 100 µM
same,TGI,DMS 114 small cell lung,> 100 µM
same,TGI,U251 CNS,> 100 µM
same,TGI,LXFL 529 NSCLC,> 100 µM
same,TGI,COLO 205 colon,> 100 µM
same,TGI,HCT-116 colon,> 100 µM
same,TGI,SW-620 colon,> 100 µM
same,TGI,CAKI-1 renal,> 100 µM
same,TGI,K-562 leukemia,> 100 µM
same,TGI,CCRF-CEM leukemia,> 100 µM
same,TGI,OVCAR-3 ovarian,> 100 µM
same,TGI,OVCAR-8 ovarian,> 100 µM
same,TGI,TK-10 renal,> 100 µM
same,TGI,UACC-62 melanoma,> 100 µM
same,TGI,RPMI-8226 leukemia,> 100 µM
same,TGI,KM20L2 colon,> 100 µM
same,TGI,MALME-3M melanoma,> 100 µM
same,TGI,NCI-H226 lung,> 100 µM
same,TGI,NCI-H23 lung,> 100 µM
same,TGI,MOLT-4 leukemia,> 100 µM
same,TGI,HCT-15 colon,> 100 µM
same,TGI,UACC-257 melanoma,> 100 µM
same,TGI,NCI-H460 lung,> 100 µM
same,TGI,A498 renal,> 100 µM
same,TGI,HOP-62 NSCLC,> 100 µM
same,TGI,HL-60(TB) leukemia,> 100 µM
same,TGI,SF-539 CNS,> 100 µM
same,TGI,OVCAR-4 ovarian,> 100 µM
same,TGI,XF 498 CNS,> 100 µM
CC1(C)C2CCC13C(=O)C1OC3(C2)C2C(=O)N(c3ccccc3)C(=O)C12 (configuration not stated),TGI,RXF 393 renal,> 100 µM
same,TGI,HCC-2998 colon,> 100 µM
same,TGI,KM12 colon,> 100 µM
same,TGI,786-0 renal,> 100 µM
same,TGI,DMS 273 small cell lung,> 100 µM
same,TGI,M14 melanoma,> 100 µM
same,TGI,ACHN renal,> 100 µM
same,TGI,HOP-18 NSCLC,> 100 µM
same,TGI,SK-MEL-2 melanoma,> 100 µM
same,TGI,SN12C renal,> 100 µM
same,TGI,SNB-75 CNS,> 100 µM
same,TGI,IGROV1 ovarian,> 100 µM
same,TGI,EKVX NSCLC,> 100 µM
same,TGI,SK-MEL-5 melanoma,> 100 µM
same,TGI,SNB-78 CNS,> 100 µM
same,TGI,NCI-H522 lung,49.1 µM
same,TGI,SF-268 CNS,> 100 µM
same,TGI,SNB-19 CNS,> 100 µM
same,TGI,RXF-631 renal,> 100 µM
same,TGI,OVCAR-5 ovarian,> 100 µM
same,TGI,LOX IMVI melanoma,> 100 µM
same,TGI,A549 NSCLC,> 100 µM
same,TGI,SF-295 CNS,> 100 µM
same,TGI,HT29 colon,> 100 µM
same,TGI,SK-OV-3 ovarian,> 100 µM
same,TGI,DMS 114 small cell lung,> 100 µM
same,TGI,U251 CNS,> 100 µM
same,TGI,LXFL 529 NSCLC,> 100 µM
same,TGI,COLO 205 colon,> 100 µM
same,TGI,HCT-116 colon,> 100 µM
same,TGI,SW-620 colon,> 100 µM
same,TGI,CAKI-1 renal,> 100 µM
same,TGI,K-562 leukemia,> 100 µM
same,TGI,CCRF-CEM leukemia,> 100 µM
same,TGI,OVCAR-3 ovarian,> 100 µM
same,TGI,OVCAR-8 ovarian,> 100 µM
same,TGI,TK-10 renal,> 100 µM
same,TGI,UACC-62 melanoma,> 100 µM
same,TGI,RPMI-8226 leukemia,> 100 µM
same,TGI,KM20L2 colon,> 100 µM
same,TGI,MALME-3M melanoma,> 100 µM
same,TGI,NCI-H226 lung,> 100 µM
same,TGI,NCI-H23 lung,> 100 µM
same,TGI,MOLT-4 leukemia,> 100 µM
same,TGI,HCT-15 colon,> 100 µM
same,TGI,UACC-257 melanoma,> 100 µM
same,TGI,NCI-H460 lung,> 100 µM
same,TGI,UO-31 renal,> 100 µM
same,TGI,A498 renal,> 100 µM
same,TGI,HOP-62 NSCLC,> 100 µM
same,TGI,HL-60(TB) leukemia,> 100 µM
same,TGI,SF-539 CNS,> 100 µM
same,TGI,OVCAR-4 ovarian,> 100 µM
